Test results from PMC7352571, “New Anti-Cancer Strategy to Suppress Colorectal Cancer Growth Through Inhibition of ATG4B and Lysosome Function” (Cancers, 2020).

Experiments:
[1] = test system: proteolytic activity of lysosomes in HeLa cells; test: DQ-BSA Red assay; assay type: cell-based; details: 6 h, 163N 5 or 10 µM, Baf 0.5 µM, E64D 25 µM plus pepstatin A 50 µM
Procedure: Figure 5 163N causes lysosome dysfunction. […] . (C) HeLa cells were treated with or without 163N (10 µM) for 6 h, followed by immunostaining using cathepsin B and LAMP1 antibody. The colocalization of cathepsin B and LAMP1 was measured.
DQ-BSA Red assay: cells were incubated with 10 µg/mL DQ-BSA Red in EBSS medium at 37° for 1.5 h, and then new medium with or without the indicated compounds were added for another 4 or 6 h, and then fluorescence microscopy was used for detecting the intensity of red fluorescent.
Supplementary Materials: New Anti-Cancer Strategy
to Suppress Colorectal Cancer Growth Through
Inhibition of ATG4B and Lysosome Function
Figure S1. Compounds with a 6-methylpyrimidine-2,4-diamine structure could cause lysosome
inhibition. (A) The structure of the representative lysosome inhibitors. (B) GFP-LC3B HeLa cells were
treated with Baf (0.5 µM) or 5 µM of different lysosome inhibitors for 2 h, then LysoTracker Red (LTR,
25 ng/mL) was used and the relative LTR fluorescent intensity was measured. (C) HeLa cells were
firstly treated with 10 µg/mL DQ-BSA for 1.5 h, and then treated with Rap (1 µM), Baf (0.5 µM), E64D
(25 µM) plus pepstatin A (50 µM), or 5 µM of different lysosome inhibitors for 4 h.
Cancers 2020, 12, x; www.mdpi.com/journal/ cancers […]

HeLa cells = test: CCK-8 cell viability assay, HeLa; assay type: cell-based; details: Homo sapiens, HeLa; CCK-8 assay, 48 h
Procedure: (§1) Cells were seeded and incubated overnight in 96-well plates at a density of 5 × 10^3 cells/well. […] A total of 10 µL CCK-8 were added to each well for additional 1 h and cell viability was measured by CCK-8 assay. Absorbance was measured at 450 nm. The IC50 values were calculated by GraphPad Prism 7 (GraphPad Software Inc., San Diego, CA, USA).

HCT116 cells = test: CCK-8 cell viability assay, HCT116; assay type: cell-based, Human; details: Homo sapiens, HCT-116; CCK-8 assay, 48 h
Procedure: as §1

HL60 cells = test: CCK-8 cell viability assay, HL60; assay type: cell-based; details: Homo sapiens, HL-60; CCK-8 assay
Procedure: as §1

ATG4B = target: T1, ATG4B (Homo sapiens, UniProt Q9Y4P1); test: FRET-based assay for ATG4B activity
T1 sequence (Q9Y4P1 1-393): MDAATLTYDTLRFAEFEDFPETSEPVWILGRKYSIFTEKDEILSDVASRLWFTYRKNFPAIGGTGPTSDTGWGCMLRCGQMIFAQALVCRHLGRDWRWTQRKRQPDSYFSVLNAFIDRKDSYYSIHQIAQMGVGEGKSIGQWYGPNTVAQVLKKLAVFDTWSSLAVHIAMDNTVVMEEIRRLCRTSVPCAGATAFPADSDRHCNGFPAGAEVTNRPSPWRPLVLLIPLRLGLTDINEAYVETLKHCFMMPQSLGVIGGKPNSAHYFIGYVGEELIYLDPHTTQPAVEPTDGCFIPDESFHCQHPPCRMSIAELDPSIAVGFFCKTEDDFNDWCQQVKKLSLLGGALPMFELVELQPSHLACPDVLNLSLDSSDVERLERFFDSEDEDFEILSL
Procedure: A FRET-based assay for detecting ATG4B activity was carried out as described [45].

[2] = test system: lysosome acidity in HeLa cells; test: LysoTracker Red (LTR) assay, HeLa; assay type: cell-based; details: 6 h, 163N 5 or 10 µM, Rap 1 µM, E64D 25 µM plus pepstatin A 50 µM
Procedure: Figure 5 163N causes lysosome dysfunction. […] (C) HeLa cells were treated with or without 163N (10 µM) for 6 h, followed by immunostaining using cathepsin B and LAMP1 antibody. The colocalization of cathepsin B and LAMP1 was measured.
LTR assay: cells were incubated with LTR (25 nM) in HBSS medium at 37° for 30 min, and then fluorescence microscopy was used for detecting fluorescence intensity.

Row | SMILES | dequenching of DQ-BSA (proteolytic activity of lysosome) [1] | IC50 (HeLa cells) [µM] | IC50 (HCT116 cells) [µM] | IC50 (HL60 cells) [µM] | IC50 (ATG4B) [µM] | LTR red fluorescence / acidic vesicles [2]
1 | CO/C1=C\C(C)=C\[C@@H](C)[C@@H](O)[C@@H](C)C/C(C)=C/C=C/[C@H](OC)[C@@H]([C@@H](C)[C@@H](O)[C@H](C)[C@@]2(O)C[C@@H](O)[C@H](C)[C@@H](C(C)C)O2)OC1=O [Baf, Bafilomycin A1, reference compound] | nearly no dequenching of DQ-BSA |  |  |  |  | 
2 | CCN1C(=O)/C(=C\c2cn(CC(=O)O)c3ccccc23)C(=O)N(c2ccc(Cl)cc2)C1=S [XGS00119] |  | > 100 | > 100 | > 100 | 7.37 | 
3 | Nc1cc(O)nc(/C=C/c2ccco2)c1 [XGS00048] |  | > 100 | > 100 | > 100 | 13.8 | 
4 | COc1c2c(cc3oc(=O)c4c5cc(O)c(O)cc5oc4c13)OCC2 [XOS00207] |  | 87.1 | 17.6 | 60.7 | 2.31 | 
5 | CC(=O)Nc1ccc(/N=C/c2c(C)c(C#N)c3[nH]c4cc(C)ccc4n3c2=O)cc1 [XOS00125] |  | > 100 | > 100 | > 100 | 40.6 | 
6 | COc1ccccc1/C=C/c1cc(O)cc(=O)[nH]1 [XGS00025] |  | > 100 | > 100 | > 100 | 29.2 | 
7 | CO[C@H]1C[C@@H]2CC[C@@H](C)[C@@](O)(O2)C(=O)C(=O)N2CCCC[C@H]2C(=O)O[C@H]([C@H](C)C[C@@H]2CC[C@@H](O)[C@H](OC)C2)CC(=O)[C@H](C)/C=C(\C)[C@@H](O)[C@@H](OC)C(=O)[C@H](C)C[C@H](C)/C=C/C=C/C=C/1C [Rap, rapamycin, reference compound] |  |  |  |  |  | stable
8 | CCOC(=O)c1cnc2c(/N=N/c3ccc(OCC)cc3)c(N)nn2c1N [XOS00149] |  | > 100 | > 100 | > 100 | 44 | 
9 | CCOC(=O)c1c(-c2ccccc2)oc2ccc(O)cc12 [XOS00163] |  | 32 | 23 | 31.7 | 6.2 | 
10 | Cc1ccc(/C=C/c2cc(O)cc(=O)[nH]2)o1 [XGS00031] |  | > 100 | > 100 | > 100 | 13 | 
11 | COc1cccc(/C=C/c2cc(N)cc(O)n2)c1 [XGS00043] |  | > 100 | > 100 | > 100 | 36.3 | 
12 | COc1cccc(-c2cc3c([N+](=O)[O-])cc([N+](=O)[O-])cc3[nH]2)c1OC [XOS00176] |  | > 100 | > 100 | > 100 | 23.8 | 
13 | COc1cccc(-c2cc3nc(-c4cccnc4)c(C#N)c(N)n3n2)c1 [XOS00154] |  | > 100 | > 100 | > 100 | 40.7 | 
14 | O=C(Nc1ccc(-c2cc3ccccc3o2)cc1)c1ccco1 [XOS00201] |  | 25.6 | 19.6 | > 100 | 8.98 | 
15 | Nc1cc(O)nc(/C=C/c2ccc(Cl)cc2)c1 [XGS00046] |  | > 100 | > 100 | > 100 | 39.1 | 
16 | N/C(=N\[N+](=O)[O-])N/N=C/c1ccc(-c2ccc(-n3cnnn3)cc2)o1 [XOS00117] |  | > 100 | > 100 | > 100 | 6.65 | 
